Data taken from patent US20250145633A1, “SUBSTITUTED FURANOPYRIMIDINE COMPOUNDS AS PDE1 INHIBITORS” (Dart NeuroScience, LLC, priority 2017, published 2025).

target: human PDE1B enzyme (Homo sapiens (Human), UniProt Q01064); assay: IMAP TR-FRET PDE1B enzymatic assay; assay type: biochemical; conditions: negative log of half-maximal molar inhibitory concentration; 200 nM FAM-cAMP; values given as bins
Method in brief: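 Full-length GST-tagged human PDE1B (250 pg/well) in IMAP BSA buffer with 10 U/ml calmodulin and 2.5 mM CaCl2; compound pre-incubated 5 min at room temperature, then 200 nM (final) FAM-cAMP for 30 min. IMAP binding reagent/Tb added, 1 h; TR-FRET 520/490 ratio read. IC50 from sigmoidal dose-response fit.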

Compound	PDE1b (pIC50)
Cc1oc2ncnc(NC3(C)CC3)c2c1C(=O)N1CC=C(c2nccc(C#N)n2)CC1 [Example 775, 2-(1-{6-Methyl-4-[(1-methylcyclopropyl)amino]furo[2,3-d]pyrimidine-5-carbonyl}-1,2,3,6-tetrahydropyridin-4-yl)pyrimidine-4-carbonitrile]	>8
COc1ccc(C(C)NC(=O)c2c(C)oc3ncnc(NC4(C)CC4)c23)cc1F (stereo not shown) [Example 304, N-[1-(3-Fluoro-4-methoxyphenyl)ethyl]-6-methyl-4-[(1-methylcyclopropyl)amino]furo[2,3-d]pyrimidine-5-carboxamide]	>8
Cc1oc2ncnc(NC3(C)CC3)c2c1C(=O)NCc1ccc(Cl)nc1 [Example 312, N-[(6-Chloropyridin-3-yl)methyl]-6-methyl-4-[(1-methylcyclopropyl)amino]furo[2,3-d]pyrimidine-5-carboxamide]	>8
Cc1oc2ncnc(NC3(C)CC3)c2c1C(=O)N1CCc2ccc(O)cc2C1C (stereo not shown) [Example 338, 1-Methyl-2-{6-methyl-4-[(1-methylcyclopropyl)amino]furo[2,3-d]pyrimidine-5-carbonyl}-1,2,3,4-tetrahydroisoquinolin-7-ol]	>8
COc1ccc(C2CCN(C(=O)c3c(C)oc4ncnc(NC5(C)CC5)c34)CC2)nc1 [Example 366, 5-[4-(5-Methoxypyridin-2-yl)piperidine-1-carbonyl]-6-methyl-N-(1-methylcyclopropyl)furo[2,3-d]pyrimidin-4-amine]	>8

same assay, conditions: negative log of half-maximal molar inhibitory concentration; 200 nM FAM-cAMP; values given as bins; read-out: PDE1b (pIC50) (converted)

Compound	IC50
Cc1ncc(CNC(=O)c2c(C)oc3ncnc(NC4(C)CC4)c23)c(=O)[nH]1 [Example 673, 6-Methyl-N-[(2-methyl-6-oxo-1,6-dihydropyrimidin-5-yl)methyl]-4-[(1-methylcyclopropyl)amino]furo[2,3-d]pyrimidine-5-carboxamide]	10 to 100 nM
Cc1oc2ncnc(NC3(C)CC3)c2c1C(=O)NCc1cnn(C)c1 [Example 646, 6-Methyl-N-[(1-methyl-1H-pyrazol-4-yl)methyl]-4-[(1-methylcyclopropyl)amino]furo[2,3-d]pyrimidine-5-carboxamide]	10 to 100 nM
Cc1oc2ncnc(NC3(C)CC3)c2c1C(=O)N1CCc2c(ncnc2C2CCOCC2)C1 [Example 803, 6-Methyl-N-(1-methylcyclopropyl)-5-[4-(oxan-4-yl)-5H,6H,7H,8H-pyrido[3,4-d]pyrimidine-7-carbonyl]furo[2,3-d]pyrimidin-4-amine]	10 to 100 nM
COc1cccc2c1OCCCN(C(=O)c1c(C)oc3ncnc(NC4(C)CC4)c13)C2 [Example 600]	10 to 100 nM
Cc1oc2ncnc(NC3(C)CC3)c2c1C(=O)N1CCc2cnc(F)nc2C1 [Example 307, 5-{2-Fluoro-5H,6H,7H,8H-pyrido[3,4-d]pyrimidine-7-carbonyl}-6-methyl-N-(1-methylcyclopropyl)furo[2,3-d]pyrimidin-4-amine]	10 to 100 nM
Cc1nc(C)c(C2CCN(C(=O)c3c(C)oc4ncnc(NC5(C)CC5)c34)CC2)[nH]1 [Example 780, 5-[4-(2,4-Dimethyl-1H-imidazol-5-yl)piperidine-1-carbonyl]-6-methyl-N-(1-methylcyclopropyl)furo[2,3-d]pyrimidin-4-amine]	100 to 1000 nM
Cc1ccccc1CCNC(=O)c1c(C)oc2ncnc(NC3(C)CC3)c12 [Example 236, 6-Methyl-4-[(1-methylcyclopropyl)amino]-N-[2-(2-methylphenyl)ethyl]furo[2,3-d]pyrimidine-5-carboxamide]	10 to 100 nM
Cc1oc2ncnc(NC3(C)CC3)c2c1C(=O)N1CCCCC(c2ccc(F)cc2)C1 (stereo not shown) [Example 295, 5-[3-(4-Fluorophenyl)azepane-1-carbonyl]-6-methyl-N-(1-methylcyclopropyl)furo[2,3-d]pyrimidin-4-amine]	10 to 100 nM
Cc1oc2ncnc(NC3(C)CC3)c2c1C(=O)N1CCc2c(ncnc2N2CC[C@H](F)C2)C1 [Example 786, 5-{4-[(3S)-3-Fluoropyrrolidin-1-yl]-5H,6H,7H,8H-pyrido[3,4-d]pyrimidine-7-carbonyl}-6-methyl-N-(1-methylcyclopropyl)furo[2,3-d]pyrimidin-4-amine]	10 to 100 nM
Cc1oc2ncnc(NC3(C)CC3)c2c1C(=O)N1CCc2cc(C#N)ccc2C1 [Example 58, 2-{6-Methyl-4-[(1-methylcyclopropyl)amino]furo[2,3-d]pyrimidine-5-carbonyl}-1,2,3,4-tetrahydroisoquinoline-6-carbonitrile]	10 to 100 nM
C#CCNC(=O)c1c(C)oc2ncnc(NC3(C)CC3)c12 [Example 210, 6-Methyl-4-[(1-methylcyclopropyl)amino]-N-(prop-2-yn-1-yl)furo[2,3-d]pyrimidine-5-carboxamide]	10 to 100 nM
COc1nc(C)nc2c1CN(C(=O)c1c(C)oc3ncnc(NC4(C)CC4)c13)CC2 [Example 712, 5-{4-Methoxy-2-methyl-5H,6H,7H,8H-pyrido[4,3-d]pyrimidine-6-carbonyl}-6-methyl-N-(1-methylcyclopropyl)furo[2,3-d]pyrimidin-4-amine]	10 to 100 nM
Cc1oc2ncnc(NC3(C)CC3)c2c1C(=O)NC(CO)c1ccc(F)cc1 (stereo not shown) [Example 513, N-[1-(4-Fluorophenyl)-2-hydroxyethyl]-6-methyl-4-[(1-methylcyclopropyl)amino]furo[2,3-d]pyrimidine-5-carboxamide]	10 to 100 nM
Cc1oc2ncnc(NC3(C)CC3)c2c1C(=O)NCc1cc([N+](=O)[O-])ccc1F [Example 614, N-[(2-Fluoro-5-nitrophenyl)methyl]-6-methyl-4-[(1-methylcyclopropyl)amino]furo[2,3-d]pyrimidine-5-carboxamide]	< 10 nM
Cc1oc2ncnc(NC3(C)CC3)c2c1C(=O)NCCc1nc2cc(F)ccc2[nH]1 [Example 724, N-[2-(5-Fluoro-1H-1,3-benzodiazol-2-yl)ethyl]-6-methyl-4-[(1-methylcyclopropyl)amino]furo[2,3-d]pyrimidine-5-carboxamide]	10 to 100 nM
Cc1oc2ncnc(NC3(C)CC3)c2c1C(=O)Nc1cc(C)n(C)n1 [Example 439, N-(1,5-Dimethyl-1H-pyrazol-3-yl)-6-methyl-4-[(1-methylcyclopropyl)amino]furo[2,3-d]pyrimidine-5-carboxamide]	100 to 1000 nM
Cc1oc2ncnc(NC3(C)CC3)c2c1C(=O)NCCN1CCOCC1 [Example 96, 6-Methyl-4-[(1-methylcyclopropyl)amino]-N-[2-(morpholin-4-yl)ethyl]furo[2,3-d]pyrimidine-5-carboxamide]	10 to 100 nM
Cc1oc2ncnc(NC3(C)CC3)c2c1C(=O)N1CCN(c2ccc(F)nc2)CC1 [Example 282, 5-[4-(6-Fluoropyridin-3-yl)piperazine-1-carbonyl]-6-methyl-N-(1-methylcyclopropyl)furo[2,3-d]pyrimidin-4-amine]	10 to 100 nM
Cc1oc2ncnc(NC3(C)CC3)c2c1C(=O)N1CCn2c(C3CC3)nc(I)c2C1 [Example 695, 5-{3-Cyclopropyl-1-iodo-5H,6H,7H,8H-imidazo[1,5-a]pyrazine-7-carbonyl}-6-methyl-N-(1-methylcyclopropyl)furo[2,3-d]pyrimidin-4-amine]	10 to 100 nM
COCC1(NC(=O)c2c(C)oc3ncnc(NC4(C)CC4)c23)CC1 [Example 148, N-[1-(Methoxymethyl)cyclopropyl]-6-methyl-4-[(1-methylcyclopropyl)amino]furo[2,3-d]pyrimidine-5-carboxamide]	10 to 100 nM
Cc1oc2ncnc(NC3(C)CC3)c2c1C(=O)N1CCN(c2nc(Cl)c(Cl)c(Cl)c2Cl)CC1 [Example 308, 6-Methyl-N-(1-methylcyclopropyl)-5-[4-(tetrachloropyridin-2-yl)piperazine-1-carbonyl]furo[2,3-d]pyrimidin-4-amine]	10 to 100 nM
Cc1oc2ncnc(NC3(C)CC3)c2c1C(=O)Nc1cnn(-c2cccnc2)c1 [Example 620, 6-Methyl-4-[(1-methylcyclopropyl)amino]-N-[1-(pyridin-3-yl)-1H-pyrazol-4-yl]furo[2,3-d]pyrimidine-5-carboxamide]	10 to 100 nM
COc1ccc(CNC(=O)c2c(C)oc3ncnc(NC4(C)CC4)c23)c(C)c1 [Example 524, N-[(4-Methoxy-2-methylphenyl)methyl]-6-methyl-4-[(1-methylcyclopropyl)amino]furo[2,3-d]pyrimidine-5-carboxamide]	10 to 100 nM
Cc1coc(NC(=O)c2c(C)oc3ncnc(NC4(C)CC4)c23)n1 [Example 451, 6-Methyl-N-(4-methyl-1,3-oxazol-2-yl)-4-[(1-methylcyclopropyl)amino]furo[2,3-d]pyrimidine-5-carboxamide]	10 to 100 nM
Cc1oc2ncnc(NC3(C)CC3)c2c1C(=O)NCc1ncccn1 [Example 653, 6-Methyl-4-[(1-methylcyclopropyl)amino]-N-(pyrimidin-2-ylmethyl)furo[2,3-d]pyrimidine-5-carboxamide]	10 to 100 nM
Cc1cn2c(n1)CN(C(=O)c1c(C)oc3ncnc(NC4(C)CC4)c13)CC2 [Example 633, 6-Methyl-5-{2-methyl-5H,6H,7H,8H-imidazo[1,2-a]pyrazine-7-carbonyl}-N-(1-methylcyclopropyl)furo[2,3-d]pyrimidin-4-amine]	100 to 1000 nM
Cc1ncc2c(n1)CCN(C(=O)c1c(C)oc3ncnc(NC4(C)CC4)c13)C2 [Example 39, 6-Methyl-5-f{2-methyl-5H,6H,7H,8H-pyrido[4,3-d]pyrimidine-6-carbonyl}-N-(1-methylcyclopropyl)furo[2,3-d]pyrimidin-4-amine]	10 to 100 nM
Cc1oc2ncnc(NC3(C)CC3)c2c1C(=O)NC1(CO)CCC1 [Example 353, N-[1-(Hydroxymethyl)cyclobutyl]-6-methyl-4-[(1-methylcyclopropyl)amino]furo[2,3-d]pyrimidine-5-carboxamide]	10 to 100 nM
Cc1nc(CNC(=O)c2c(C)oc3ncnc(NC4(C)CC4)c23)cc(=O)[nH]1 [Example 662, 6-Methyl-N-[(2-methyl-6-oxo-1,6-dihydropyrimidin-4-yl)methyl]-4-[(1-methylcyclopropyl)amino]furo[2,3-d]pyrimidine-5-carboxamide]	10 to 100 nM
